# From patent publication US20240091195A1 (SANWA KAGAKU KENKYUSHO CO., LTD., priority 2021, published 2024)
# Experiments:
# [1] = dissolved in ethanol, stability after 24 hours
# [2] = system: rat pilocarpine-induced salivary secretion model; test: Pilocarpine-induced salivary secretion, 0.5 cm^2 transdermal absorptive preparations (Test Example 2); format: in vivo, Hairless rats (HWY/Slc); conditions: 0.5 cm^2 applied to neck once a day, pilocarpine hydrochloride 0.5 mg/kg i.v., n=5
# Experimental: Under isoflurane anesthesia, 0.5 cm^2 of each of the transdermal absorptive preparations (including a placebo preparation) containing various glycopyrronium salts produced in accordance with Preparation Production Example 1, Comparative Preparation Production Examples 2 and 4, and Reference Preparation Production Example 1 was applied to the necks of the rats once a day every 24 hours for 2 days.
# The amount of saliva secreted was calculated from the difference between the weights of the cotton ball before and after collection of saliva, and taking the average value of the amount of saliva secreted of the placebo group as 100%, the salivary secretion proportion of each individual was calculated from the following (equation).
# [3] = system: rat pilocarpine-induced salivary secretion model; test: Pilocarpine-induced salivary secretion, 0.25 cm^2 transdermal absorptive preparations (Test Example 3); conditions: 0.25 cm^2 applied to neck once a day, pilocarpine hydrochloride 0.5 mg/kg i.v.
compound,measurement,setting,value
Glycopyrronium acetate,decomposition in ethanol,[1],20%
"C[N+]1(C)CCC(OC(=O)C(O)(c2ccccc2)C2CCCC2)C1.O=C([O-])CNC(=O)c1ccccc1 (racemic) [Glycopyrronium hippurate, (3RS, 2SR)-glycopyrronium hippurate]",salivary secretion suppressive effect compared with placebo group,[2]; Day 1 of application (23 hours after first application),significant salivary secretion suppressive effects
same,salivary secretion suppressive effect compared with placebo group,[3]; Day 1 of application,significant effect
same,salivary secretion suppressive effect compared with placebo group,[3]; Day 2 of application,significant effect only on Day 1 of application
"C[N+]1(C)CCC(OC(=O)C(O)(c2ccccc2)C2CCCC2)C1 (stereo not drawn) [Glycopyrronium bromide, (3RS, 2SR)-glycopyrronium bromide]",salivary secretion suppressive effect compared with placebo group,"[2]; Day 1 of application (23 hours after first application), listed as glycopyrronium-bromide",no significant effect
same,salivary secretion suppressive effect compared with placebo group,"[3]; Day 1 of application, listed as glycopyrronium bromide",did not show any significant effect
same,salivary secretion suppressive effect compared with placebo group,"[3]; Day 2 of application, listed as glycopyrronium bromide",did not show any significant effect
"C[N+]1(C)CCC(OC(=O)C(O)(c2ccccc2)C2CCCC2)C1.O=C([O-])c1ccccc1 (stereo not drawn) [Glycopyrronium benzoate, glycopyrronium benzoate]",decomposition in ethanol,[1],10%
"C[N+]1(C)CCC(OC(=O)C(O)(c2ccccc2)C2CCCC2)C1 (stereo not drawn) [Glycopyrronium salicylate, 3-(2-cyclopentyl-2-hydroxy-2-phenylacetoxy)-1,1-dimethylpyrrolidium salicylate]",salivary secretion suppressive effect compared with placebo group,"[2]; Day 1 of application (23 hours after first application), listed as glycopyrronium salicylate",significant salivary secretion suppressive effects
same,salivary secretion suppressive effect compared with placebo group,[2]; Day 2 of application (47 hours after first application),strongest salivary secretion suppressive effect
same,salivary secretion suppressive effect compared with placebo group,"[3]; Day 1 of application, listed as glycopyrronium salicylate",strongest and significant salivary secretion suppressive effect
same,salivary secretion suppressive effect compared with placebo group,"[3]; Day 2 of application, listed as glycopyrronium salicylate",strongest and significant salivary secretion suppressive effect
